Measurements taken from US8895733B2 (Novartis AG, priority 2010, dated 2014).

Biological target: T1, Nav 1.7 (Homo sapiens, UniProt Q15858)
T1 construct: expressed in transfected cells
Experiment: Whole-cell voltage clamp electrophysiology, automated patch clamp (marker c in Table of Examples)
Type: cell-based
Conditions: marker c = Automated patch clamp data; read-out: Nav 1.7 activity
In short: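 Human NaV1.7 currents were recorded by whole-cell automated patch clamp, on IonWorks Quattro or another automated platform, typically in perforated-patch configuration. The stimulus protocol was designed to probe block mainly of the inactivated state, with a typical sweep stepping from about −65 mV holding to −10 mV, then −100 mV.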

T1 sequence (Q15858 whole entry): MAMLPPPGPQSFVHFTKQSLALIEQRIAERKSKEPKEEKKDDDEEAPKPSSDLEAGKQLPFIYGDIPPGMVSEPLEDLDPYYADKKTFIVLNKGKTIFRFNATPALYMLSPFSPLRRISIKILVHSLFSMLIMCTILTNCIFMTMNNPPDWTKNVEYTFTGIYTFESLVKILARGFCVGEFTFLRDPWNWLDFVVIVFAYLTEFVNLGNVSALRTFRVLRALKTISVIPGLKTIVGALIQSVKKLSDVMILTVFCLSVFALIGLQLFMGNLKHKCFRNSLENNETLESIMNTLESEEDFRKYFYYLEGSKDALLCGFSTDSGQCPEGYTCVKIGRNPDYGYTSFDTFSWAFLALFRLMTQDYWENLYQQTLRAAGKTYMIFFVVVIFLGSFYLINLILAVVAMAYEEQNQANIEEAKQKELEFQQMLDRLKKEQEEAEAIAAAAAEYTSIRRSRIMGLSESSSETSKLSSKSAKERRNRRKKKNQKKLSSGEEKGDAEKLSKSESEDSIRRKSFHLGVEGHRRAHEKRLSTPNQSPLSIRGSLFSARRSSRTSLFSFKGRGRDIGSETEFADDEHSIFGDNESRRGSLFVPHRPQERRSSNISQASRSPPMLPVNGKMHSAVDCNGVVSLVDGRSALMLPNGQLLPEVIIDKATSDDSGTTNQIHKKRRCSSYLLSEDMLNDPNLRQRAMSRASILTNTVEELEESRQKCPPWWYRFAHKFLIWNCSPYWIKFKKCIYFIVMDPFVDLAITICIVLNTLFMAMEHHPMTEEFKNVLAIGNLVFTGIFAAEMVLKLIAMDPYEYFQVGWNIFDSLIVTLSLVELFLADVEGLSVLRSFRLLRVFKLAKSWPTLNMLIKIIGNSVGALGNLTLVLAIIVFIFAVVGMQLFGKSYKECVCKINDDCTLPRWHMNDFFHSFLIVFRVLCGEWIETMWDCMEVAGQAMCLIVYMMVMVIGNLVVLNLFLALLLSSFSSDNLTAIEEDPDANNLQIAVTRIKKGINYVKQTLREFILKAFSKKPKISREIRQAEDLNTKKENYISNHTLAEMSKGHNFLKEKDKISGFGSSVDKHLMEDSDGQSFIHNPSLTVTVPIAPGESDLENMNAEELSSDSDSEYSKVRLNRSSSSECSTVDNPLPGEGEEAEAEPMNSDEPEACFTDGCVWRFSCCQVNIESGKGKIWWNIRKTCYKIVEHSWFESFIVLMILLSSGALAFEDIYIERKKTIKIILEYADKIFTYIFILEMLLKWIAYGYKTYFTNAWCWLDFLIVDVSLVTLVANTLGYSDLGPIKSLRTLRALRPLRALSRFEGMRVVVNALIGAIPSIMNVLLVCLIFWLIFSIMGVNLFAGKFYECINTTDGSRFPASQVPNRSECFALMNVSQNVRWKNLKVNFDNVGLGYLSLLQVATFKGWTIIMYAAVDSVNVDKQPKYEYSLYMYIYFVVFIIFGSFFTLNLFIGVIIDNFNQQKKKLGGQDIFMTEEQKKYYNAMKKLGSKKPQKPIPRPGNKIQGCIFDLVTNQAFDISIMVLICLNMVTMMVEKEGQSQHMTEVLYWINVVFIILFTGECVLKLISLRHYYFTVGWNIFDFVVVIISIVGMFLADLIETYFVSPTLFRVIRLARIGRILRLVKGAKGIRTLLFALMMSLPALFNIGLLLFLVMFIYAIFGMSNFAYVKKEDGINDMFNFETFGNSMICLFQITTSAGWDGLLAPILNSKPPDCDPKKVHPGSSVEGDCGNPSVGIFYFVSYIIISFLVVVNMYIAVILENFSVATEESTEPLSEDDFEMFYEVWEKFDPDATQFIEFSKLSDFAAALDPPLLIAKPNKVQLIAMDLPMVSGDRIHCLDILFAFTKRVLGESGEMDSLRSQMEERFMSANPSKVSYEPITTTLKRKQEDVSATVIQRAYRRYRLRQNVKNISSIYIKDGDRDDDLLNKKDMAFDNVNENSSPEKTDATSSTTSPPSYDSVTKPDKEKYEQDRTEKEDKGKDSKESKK

SMILES	IC50
CN1CCN(C(=O)c2nc(-c3nc(N)nc(N(C)c4ccccc4)n3)no2)CC1 [Example 344, 2-N-methyl-6-{5-[(4-methylpiperazin-1-yl)carbonyl]-1,2,4-oxadiazol-3-yl}-2-N-phenyl-1,3,5-triazine-2,4-diamine]	5760 nM
CN(c1ccccc1)c1nc(N)nc(-c2noc(-c3nc(C(F)(F)F)cs3)n2)n1 [Example 345, 2-N-methyl-2-N-phenyl-6-{5-[4-(trifluoromethyl)-1,3-thiazol-2-yl]-1,2,4-oxadiazol-3-yl}-1,3,5-triazine-2,4-diamine]	1970 nM
CN(c1ccccc1)c1nc(N)nc(-c2noc(N3CCN(C(=O)C(F)(F)F)CC3)n2)n1 [Example 347, 1-[4-(3-{4-amino-6-[methyl(phenyl)amino]-1,3,5-triazin-2-yl}-1,2,4-oxadiazol-5-yl)piperazin-1-yl]-2,2,2-trifluoroethan-1-one]	5810 nM
CN(c1ccccc1)c1nc(N)nc(-c2noc(-c3ncccc3C(F)(F)F)n2)n1 [Example 348, 2-N-methyl-2-N-phenyl-6-{5-[3-(trifluoromethyl)pyridin-2-yl]-1,2,4-oxadiazol-3-yl}-1,3,5-triazine-2,4-diamine]	328 nM
CN(c1ccccc1)c1nc(N)nc(-c2noc(-c3ccc(COCC(F)(F)F)cn3)n2)n1 [Example 349, 2-N-methyl-2-N-phenyl-6-(5-{5-[(2,2,2-trifluoroethoxy)methyl]pyridin-2-yl}-1,2,4-oxadiazol-3-yl)-1,3,5-triazine-2,4-diamine]	2.5 nM
Nc1nc(Nc2ccccc2)nc(-c2noc(-c3ccc(COCC(F)(F)F)cn3)n2)n1 [Example 350, 2-N-phenyl-6-(5-{5-[(2,2,2-trifluoroethoxy)methyl]pyridin-2-yl}-1,2,4-oxadiazol-3-yl)-1,3,5-triazine-2,4-diamine]	4 nM
CN(c1ccccc1)c1nc(N)nc(-c2noc(-c3ccc(COCC(F)(F)F)cc3)n2)n1 [Example 351, 2-N-methyl-2-N-phenyl-6-(5-{4-[(2,2,2-trifluoroethoxy)methyl]phenyl}-1,2,4-oxadiazol-3-yl)-1,3,5-triazine-2,4-diamine]	11 nM
CN(c1ccccc1)c1nc(N)nc(-c2noc(N3CCC(c4ccccc4)CC3)n2)n1 [Example 352, 2-N-methyl-2-N-phenyl-6-[5-(4-phenylpiperidin-1-yl)-1,2,4-oxadiazol-3-yl]-1,3,5-triazine-2,4-diamine]	1280 nM
CN(c1ccccc1)c1nc(N)nc(-c2noc([C@H]3CCCN3C(=O)OC(C)(C)C)n2)n1 [Example 353, tert-butyl (2R)-2-(3-{4-amino-6-[methyl(phenyl)amino]-1,3,5-triazin-2-yl}-1,2,4-oxadiazol-5-yl)pyrrolidine-1-carboxylate]	893 nM
CN(c1ccccc1)c1nc(N)nc(-c2noc(N3CCC(Oc4ccccn4)CC3)n2)n1 [Example 354, 2-N-methyl-2-N-phenyl-6-{5-[4-(pyridin-2-yloxy)piperidin-1-yl]-1,2,4-oxadiazol-3-yl}-1,3,5-triazine-2,4-diamine]	1200 nM
CN(c1ccccc1)c1nc(N)nc(-c2noc(N3CCC(O)(c4ccccc4)CC3)n2)n1 [Example 355, 1-(3-{4-amino-6-[methyl(phenyl)amino]-1,3,5-triazin-2-yl}-1,2,4-oxadiazol-5-yl)-4-phenylpiperidin-4-ol]	2620 nM
CN(c1ccccc1)c1nc(N)nc(-c2noc(-c3ccc(OC4CCCCC4)nc3)n2)n1 [Example 356, 6-{5-[6-(cyclohexyloxy)pyridin-3-yl]-1,2,4-oxadiazol-3-yl}-2-N-methyl-2-N-phenyl-1,3,5-triazine-2,4-diamine]	20 nM
CC(Oc1ccc(-c2nc(-c3nc(N)nc(N(C)c4ccccc4)n3)no2)cn1)C(F)(F)F (stereo not drawn) [Example 357, 2-N-methyl-2-N-phenyl-6-(5-{6-[(1,1,1-trifluoropropan-2-yl)oxy]pyridin-3-yl}-1,2,4-oxadiazol-3-yl)-1,3,5-triazine-2,4-diamine]	55 nM
CC(OCC(F)(F)F)c1ccc(-c2nc(-c3nc(N)nc(N(C)c4ccccc4)n3)no2)nc1 (stereo not drawn) [Example 358, 2-N-Methyl-2-N-phenyl-6-(5-{5-[1-(2,2,2-trifluoroethoxy)ethyl]pyridin-2-yl}-1,2,4-oxadiazol-3-yl)-1,3,5-triazine-2,4-diamine]	56 nM
CN(c1ccccc1)c1nc(N)nc(-c2noc(-c3ccc(OCCC(F)(F)F)nc3)n2)n1 [Example 359, 2-N-methyl-2-N-phenyl-6-{5-[6-(3,3,3-trifluoropropoxy)pyridin-3-yl]-1,2,4-oxadiazol-3-yl}-1,3,5-triazine-2,4-diamine]	24 nM
COC1(c2ccccc2)CCN(c2nc(-c3nc(N)nc(N(C)c4ccccc4)n3)no2)CC1 [Example 360, 6-[5-(4-methoxy-4-phenylpiperidin-1-yl)-1,2,4-oxadiazol-3-yl]-2-N-methyl-2-N-phenyl-1,3,5-triazine-2,4-diamine]	2140 nM
CN(c1ccccc1)c1nc(N)nc(-c2noc(-c3ccc(OC4CCOCC4)nc3)n2)n1 [Example 361, 2-N-methyl-6-{5-[6-(oxan-4-yloxy)pyridin-3-yl]-1,2,4-oxadiazol-3-yl}-2-N-phenyl-1,3,5-triazine-2,4-diamine]	273 nM

SMILES	IC50
CN(c1ccccc1)c1nc(N)nc(-c2noc(N3CCC(SCC(F)(F)F)CC3)n2)n1 [Example 362, 2-N-methyl-2-N-phenyl-6-(5-{4-[(2,2,2-trifluoroethyl)sulfanyl]piperidin-1yl}-1,2,4-oxadiazol-3-yl)-1,3,5-triazine-2,4-diamine]	711 nM
Nc1nc(Nc2ccccc2)nc(-c2noc(-c3ccc(OCCC(F)(F)F)nc3)n2)n1 [Example 363, 2-N-phenyl-6-{5-[6-(3,3,3-trifluoropropoxy)pyridin-3-yl]-1,2,4-oxadiazol-3-yl}-1,3,5-triazine-2,4-diamine]	7 nM
CN1CCC(Oc2ccc(-c3nc(-c4nc(N)nc(N(C)c5ccccc5)n4)no3)cn2)C1 (stereo not drawn) [Example 364, 2-N-methyl-6-(5-{6-[(1-methylpyrrolidin-3-yl)oxy]pyridin-3-yl}-1,2,4-oxadiazol-3-yl)-2-N-phenyl-1,3,5-triazine-2,4-diamine]	1620 nM
CN(c1ccccc1)c1nc(N)nc(-c2noc(N3CCC(S(=O)(=O)CC(F)(F)F)CC3)n2)n1 [Example 365, 2-N-methyl-2-N-phenyl-6-(5-{4-[(2,2,2-trifluoroethane)sulfonyl]piperidin-1-yl}-1,2,4-oxadiazol-3-yl)-1,3,5-triazine-2,4-diamine]	> 8460 nM
CN(c1ccccc1)c1nc(N)nc(-c2noc(-c3ccc(OCCOCC(F)(F)F)nc3)n2)n1 [Example 366, 2-N-Methyl-2-N-phenyl-6-(5-{6-[2-(2,2,2-trifluoroethoxy)ethoxy]pyridin-3-yl}-1,2,4-oxadiazol-3-yl)-1,3,5-triazine-2,4-diamine]	52.5 nM
CC(C)SC1CCN(c2nc(-c3nc(N)nc(N(C)c4ccccc4)n3)no2)CC1 [Example 367, 2-N-methyl-2-N-phenyl-6-{5-[4-(propan-2-ylsulfanyl)piperidin-1-yl]-1,2,4-oxadiazol-3-yl}-1,3,5-triazine-2,4-diamine]	2060 nM
CC(C)[S+]([O-])C1CCN(c2nc(-c3nc(N)nc(N(C)c4ccccc4)n3)no2)CC1 (stereo not drawn) [Example 368, 2-N-methyl-2-N-phenyl-6-{5-[4-(propane-2-sulfinyl)piperidin-1-yl]-1,2,4-oxadiazol-3-yl}-1,3,5-triazine-2,4-diamine]	6700 nM
CN(c1ccccc1)c1nc(N)nc(-c2noc(-c3ncccc3C(=O)NCC3CC3)n2)n1 [Example 369, 2-(3-{4-amino-6-[methyl(phenyl)amino]-1,3,5-triazin-2-yl}-1,2,4-oxadiazol-5-yl)-N-(cyclopropylmethyl)pyridine-3-carboxamide]	1320 nM
CN(c1ccccc1)c1nc(N)nc(-c2noc(-c3cccnc3C(=O)NCC3CC3)n2)n1 [Example 370, 3-(3-{4-amino-6-[methyl(phenyl)amino]-1,3,5-triazin-2-yl}-1,2,4-oxadiazol-5-yl)-N-(cyclopropylmethyl)pyridine-2-carboxamide]	3510 nM
CN(c1ccccc1)c1nc(N)nc(-c2noc(-c3ncccc3C(=O)NC3CCC3)n2)n1 [Example 371, 2-(3-{4-amino-6-[methyl(phenyl)amino]-1,3,5-triazin-2-yl}-1,2,4-oxadiazol-5-yl)-N-cyclobutylpyridine-3-carboxamide]	7300 nM
CN(c1ccccc1)c1nc(N)nc(-c2noc(-c3ccc(OCC(F)F)nc3)n2)n1 [Example 372, 6-{5-[6-(2,2-difluoroethoxy)pyridin-3-yl]-1,2,4-oxadiazol-3-yl}-2-N-methyl-2-N-phenyl-1,3,5-triazine-2,4-diamine]	155 nM
CN(c1ccccc1)c1nc(N)nc(-c2noc(-c3cccnc3C(=O)NC3CC3)n2)n1 [Example 373, 3-(3-{4-amino-6-[methyl(phenyl)amino]-1,3,5-triazin-2-yl}-1,2,4-oxadiazol-5-yl)-N-cyclopropylpyridine-2-carboxamide]	4880 nM
CN(c1ccccc1)c1nc(N)nc(-c2noc(-c3cccnc3C(=O)NC3CCC3)n2)n1 [Example 374, 3-(3-{4-amino-6-[methyl(phenyl)amino]-1,3,5-triazin-2-yl}-1,2,4-oxadiazol-5-yl)-N-cyclobutylpyridine-2-carboxamide]	2080 nM
CN(c1ccccc1)c1nc(N)nc(-c2noc(-c3cccnc3C(=O)NCC(F)(F)F)n2)n1 [Example 375, 3-(3-{4-amino-6-[methyl(phenyl)amino]-1,3,5-triazin-2-yl}-1,2,4-oxadiazol-5-yl)-N-(2,2,2-trifluoroethyl)pyridine-2-carboxamide]	1510 nM
CN(c1ccccc1)c1nc(N)nc(-c2noc(-c3ncccc3C(=O)NC3CC3)n2)n1 [Example 376, 2-(3-{4-amino-6-[methyl(phenyl)amino]-1,3,5-triazin-2-yl}-1,2,4-oxadiazol-5-yl)-N-cyclopropylpyridine-3-carboxamide]	9500 nM
CN(c1ccccc1)c1nc(N)nc(-c2noc(-c3ncccc3C(=O)OCC3CC3)n2)n1 [Example 377]	232 nM
